Assay results as given in the supplement of paper PMC8617591.

Key:
[1] = test system: Mycobacterium tuberculosis Erdman (autoluminescent); experiment: total FIC50 (Loewe) at 50% inhibition, three-drug combination (log2); higher = more antagonistic
Method: (§1)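 DiaMOND equipotent three-drug combination dose responses (10 doses, 1.5- or 2-fold spacing, centred on IC90) against autoluminescent M. tuberculosis Erdman in 8 in vitro models. Read-out is OD600, or luminescence for the intracellular and dormancy models, normalised to untreated wells. Hill-fit Einf, AUC25 and GRinf are potency metrics; FIC50 and FIC90 are total Loewe fractional inhibitory concentrations as log2 (negative = synergy).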

[2] = test system: Mycobacterium tuberculosis Erdman (autoluminescent); experiment: total FIC90 (Loewe) at 90% inhibition, three-drug combination (log2); higher = more antagonistic
Method: as §1

[3] = test system: Mycobacterium tuberculosis Erdman (autoluminescent); experiment: Einf, fitted maximum growth inhibition of three-drug combination (fraction); higher = stronger maximal inhibition
Method: as §1

[4] = test system: Mycobacterium tuberculosis Erdman (autoluminescent); experiment: AUC25, normalised area under dose response up to IC25 (three-drug combination) (fraction (0-1)); higher = more potent at low dose
Method: as §1

[5] = test system: Mycobacterium tuberculosis Erdman (autoluminescent); experiment: GRinf, maximum normalised growth rate inhibition (three-drug combination) (unitless (-1 to 1)); higher = less effect (negative = killing)
Method: as §1

CC[C@@H](CO)NCCN[C@@H](CC)CO [ethambutol] + COc1c(N2C[C@@H]3CCCN[C@@H]3C2)c(F)cc2c(=O)c(C(=O)O)cn(C3CC3)c12 [moxifloxacin] + O=[N+]([O-])c1cn2c(n1)OC[C@@H](OCc1ccc(OC(F)(F)F)cc1)C2 [pretomanid]
Conditions | AUC25, [4] | Einf, [3] | GRinf, [5] | total FIC50, [1] | total FIC90, [2]
in vitro model: acidic pH 5.7, time point: constant (~7 days, model-specific) | 0.124 | 0.718 | -0.388 | 0.434 | –
in vitro model: acidic pH 5.7, time point: terminal (~4-5 doublings, model-specific) | 0.0788 | 0.939 | -0.335 | 1.03 | 0.811
in vitro model: intracellular J774, time point: constant = terminal | – | 0.999 | -0.573 | – | -1.12

Conditions | AUC25, [4] | Einf, [3] | GRinf, [5] | total FIC50, [1] | total FIC90, [2]
in vitro model: butyrate, time point: constant (~7 days, model-specific) | 0.0791 | 0.94 | -0.0315 | 0.478 | –
in vitro model: butyrate, time point: terminal (~4-5 doublings, model-specific) | 0.0604 | 0.968 | -0.039 | 0.42 | 0.0737
in vitro model: cholesterol 0.05 mM, time point: constant (~7 days, model-specific) | 0.106 | 0.669 | -0.247 | 0.987 | –
in vitro model: cholesterol 0.05 mM, time point: terminal (~4-5 doublings, model-specific) | 0.116 | 0.927 | -0.457 | 0.0988 | 1.38
in vitro model: cholesterol-high 0.2 mM, time point: constant (~7 days, model-specific) | 0.0657 | 0.89 | -0.187 | 0.925 | –
in vitro model: cholesterol-high 0.2 mM, time point: terminal (~4-5 doublings, model-specific) | 0.0467 | 1 | -0.609 | 1.12 | 1.04
in vitro model: dormancy (butyrate + nitrate, low O2), time point: constant (~7 days, model-specific) | 0.116 | 0.835 | 0.349 | 0.37 | –
in vitro model: dormancy (butyrate + nitrate, low O2), time point: terminal (~4-5 doublings, model-specific) | 0.126 | 0.986 | -0.335 | -0.414 | 0.703
in vitro model: standard 7H9 glycerol, time point: constant = terminal | 0.0753 | 0.974 | -0.251 | 0.294 | 0.564
in vitro model: valerate, time point: constant (~7 days, model-specific) | 0.0943 | 0.862 | -0.00882 | -0.131 | –
in vitro model: valerate, time point: terminal (~4-5 doublings, model-specific) | 0.0516 | 0.929 | 0.0316 | 0.26 | -0.798

COc1nc2ccc(Br)cc2cc1[C@@H](c1ccccc1)[C@@](O)(CCN(C)C)c1cccc2ccccc12 [bedaquiline] + NNC(=O)c1ccncc1 [isoniazid] + NC(=O)c1cnccn1 [pyrazinamide]
Conditions | AUC25, [4] | Einf, [3] | GRinf, [5] | total FIC50, [1] | total FIC90, [2]
in vitro model: acidic pH 5.7, time point: constant (~7 days, model-specific) | 0.0904 | 0.873 | -0.529 | 0.0123 | –
in vitro model: acidic pH 5.7, time point: terminal (~4-5 doublings, model-specific) | 0.0797 | 0.981 | -0.413 | 0.0722 | 0.15
in vitro model: intracellular J774, time point: constant = terminal | – | 0.987 | -0.53 | – | 0.651

Conditions | AUC25, [4] | Einf, [3] | GRinf, [5] | total FIC50, [1] | total FIC90, [2]
in vitro model: butyrate, time point: constant (~7 days, model-specific) | 0.0809 | 0.949 | -0.109 | 0.406 | 0.726
in vitro model: butyrate, time point: terminal (~4-5 doublings, model-specific) | 0.0598 | 0.978 | -0.0731 | 0.373 | 0.404
in vitro model: cholesterol 0.05 mM, time point: constant (~7 days, model-specific) | 0.103 | 0.726 | -0.236 | – | –
in vitro model: cholesterol 0.05 mM, time point: terminal (~4-5 doublings, model-specific) | 0.102 | 0.935 | -0.279 | 0.232 | –
in vitro model: cholesterol-high 0.2 mM, time point: constant (~7 days, model-specific) | 0.0921 | 0.995 | -0.637 | 0.548 | –
in vitro model: cholesterol-high 0.2 mM, time point: terminal (~4-5 doublings, model-specific) | 0.068 | 1 | -0.598 | 0.805 | 0.505
in vitro model: dormancy (butyrate + nitrate, low O2), time point: constant (~7 days, model-specific) | 0.0789 | 0.922 | 0.125 | -0.318 | -0.645
in vitro model: dormancy (butyrate + nitrate, low O2), time point: terminal (~4-5 doublings, model-specific) | 0.0524 | 0.992 | -0.123 | 0.063 | -0.625
in vitro model: standard 7H9 glycerol, time point: constant = terminal | 0.0575 | 0.957 | -0.0565 | 0.231 | –
in vitro model: valerate, time point: constant (~7 days, model-specific) | 0.0999 | 0.847 | 0.0396 | 0.527 | –
in vitro model: valerate, time point: terminal (~4-5 doublings, model-specific) | 0.0629 | 0.953 | -0.0326 | 0.64 | 1.01

CC(C)/N=c1\cc2n(-c3ccc(Cl)cc3)c3ccccc3nc-2cc1Nc1ccc(Cl)cc1 [clofazimine] + COc1c(N2C[C@@H]3CCCN[C@@H]3C2)c(F)cc2c(=O)c(C(=O)O)cn(C3CC3)c12 [moxifloxacin] + O=[N+]([O-])c1cn2c(n1)OC[C@@H](OCc1ccc(OC(F)(F)F)cc1)C2 [pretomanid]
Conditions | AUC25, [4] | Einf, [3] | GRinf, [5] | total FIC50, [1] | total FIC90, [2]
in vitro model: acidic pH 5.7, time point: constant (~7 days, model-specific) | 0.111 | 0.66 | -0.331 | 0.779 | –
in vitro model: acidic pH 5.7, time point: terminal (~4-5 doublings, model-specific) | 0.0647 | 0.93 | -0.186 | 0.34 | 0.287
in vitro model: intracellular J774, time point: constant = terminal | – | 0.981 | -0.328 | – | -0.136

Conditions | AUC25, [4] | Einf, [3] | GRinf, [5] | total FIC50, [1] | total FIC90, [2]
in vitro model: butyrate, time point: constant (~7 days, model-specific) | 0.114 | 0.945 | -0.41 | 0.567 | 2.06
in vitro model: butyrate, time point: terminal (~4-5 doublings, model-specific) | 0.101 | 0.989 | -0.286 | 0.561 | 1.3
in vitro model: cholesterol 0.05 mM, time point: constant (~7 days, model-specific) | 0.112 | 0.707 | -0.152 | 0.31 | –
in vitro model: cholesterol 0.05 mM, time point: terminal (~4-5 doublings, model-specific) | 0.104 | 0.908 | -0.0989 | 0.933 | 0.0471
in vitro model: cholesterol-high 0.2 mM, time point: constant (~7 days, model-specific) | 0.108 | 0.921 | -0.386 | 0.526 | 2.16
in vitro model: cholesterol-high 0.2 mM, time point: terminal (~4-5 doublings, model-specific) | 0.111 | 1 | -0.905 | 0.181 | 0.651
in vitro model: dormancy (butyrate + nitrate, low O2), time point: constant (~7 days, model-specific) | 0.096 | 0.958 | 0.184 | 0.193 | -0.0601
in vitro model: dormancy (butyrate + nitrate, low O2), time point: terminal (~4-5 doublings, model-specific) | 0.0701 | 0.981 | -0.138 | 0.461 | 0.601
in vitro model: standard 7H9 glycerol, time point: constant = terminal | 0.112 | 0.974 | -0.306 | -0.121 | 0.463
in vitro model: valerate, time point: constant (~7 days, model-specific) | 0.117 | 0.881 | -0.0836 | 0.973 | –
in vitro model: valerate, time point: terminal (~4-5 doublings, model-specific) | 0.0939 | 0.934 | -0.0367 | 0.371 | -0.0804
